Assay results published in patent US9464135B2, “Epithelial membrane protein-2 (EMP2) and proliferative vitroretinopathy (PVR)” (THE REGENTS OF THE UNIVERSITY OF CALIFORNIA, priority 2009, dated 2016).

Assays:
Assay type in all cases: cell-based, human
ARPE-19 cells [1] = assay: Collagen gel contraction assay, ARPE-19 cells; conditions: 1 hour pretreatment, normalized to vehicle control, read-out: concentration required to achieve 50% inhibition of the gel contraction
Method: EMP2 diabody was recombinantly constructed using a phage library to select for reactivity against a human EMP2 peptide. […] Toxicity, adhesion, and migration were assessed respectively through flow cytometry using Annexin V, binding to collagen type 1, and a wound healing assay. Collagen gel contraction was assessed using an in vitro assay.
(§1) Collagen gel contraction assays were performed as previously reported (Morales S A et al., Exp Eye Res, 85(6):790-798 (2007)). Briefly, collagen gels were prepared by combining collagen type I (BD Biosciences) 10×DMEM, and DMEM/F12. The final concentration of the collagen type I mixture was 2.5 mg/mL. The collagen solution (500 μL) was added to each well of a 24-well plate and incubated at 37° C. in 5% CO2 for 1 hour. Cultured ARPE-19 cell with modified EMP2 levels were harvested and resuspended in serum-free DMEM/F12 at a final concentration of 5×10^5/mL. ARPE-19 cells with modified EMP2 levels were seeded onto the collagen gel at a concentration of 2.5×10^5 cells per well and the percentage of contraction was measured at 24 hours. The area of the each gel was obtained by taking a picture of the gel using image capture (Gel Doc 2000; Bio-Rad, Hercules, Calif.) and quantified with NIH Image J (developed by Wayne Rasband, National Institutes of Health, Bethesda, Md.; available at http://rsb.info.nih.gov/ij/index.html). […]

ARPE-19/EMP2 siRNA cells = assay: Collagen gel contraction assay, ARPE-19/EMP2 siRNA cells; conditions: 1 hour pretreatment, normalized to vehicle control, read-out: concentration required to achieve 50% inhibition of the gel contraction
Method: as §1
(§2) Collagen gels were prepared with collagen type I (BD Biosciences) in DMEM/F12 at a final concentration of 2.5 mg/mL. […] ARPE-19, ARPE-19/EMP2, and ARPE-19/EMP2 siRNA cells were seeded onto the collagen gels at a concentration of 2.5×10^5 cells per well and the percentage of contraction was measured at specific time intervals. […]

ARPE-19/EMP2 cells = assay: Collagen gel contraction assay, ARPE-19/EMP2 cells; conditions: overexpressing ARPE-19/EMP2 cells; 1 hour pretreatment; normalized to vehicle control; read-out: concentration required to achieve 50% inhibition of the gel contraction
Method: as §1, §2

ARPE-19 cells [2] = assay: Migration assay (scratch wound closure); conditions: 50 ng/mL PDGF, 24 hours
Method: ARPE-19 and ARPE-19/EMP2 cells were seeded onto a 24-well plate and incubated for 3 days until cells reached confluence. The cells were washed with PBS, serum-free medium was added, and the cells were incubated overnight. A 10 μL pipette tip was used to make a scratch in the monolayer and the medium was removed and replaced with serum-free medium or serum-free medium that contained 50 ng/mL PDGF. Pictures of the wound were taken at various time points, and the percentage closure of the scratch was quantified with NIH Image J software. The area of the scratch was measured immediately after the wound was created. Over time, cells migrated into the cleared area; however, a gap was still visible after 24 hours. The gap size was measured and divided by the original scratch size, and this value was expressed as percentage closure.

[3] = tested on: ARPE-19 and ARPE-19/EMP2 cells; assay: Collagen production (Sircol Collagen Assay); conditions: 10 ng/mL TGF-β, 72 hours, serum-free medium; compared with untreated condition
Method: ARPE-19 and ARPE-19/EMP2 cells were seeded onto a six-well plate at a concentration of 7×10^5 cells/mL in serum-free medium in the presence or absence of 10 ng/mL […]. The medium was collected after 72 hours. Secreted collagen was measured (Sircol Collagen Assay; Accurate Chemical & Scientific, Westbury, N.Y.). The collagen assay is a colorimetric procedure. The reaction product was quantified with the microplate reader at a wavelength of 540 nm. Each experiment included at least six replicates, and at least three independent experiments were performed. A Student's t-test (unpaired, one-tail) was used. P<0.05 was judged to be statistically significant.

CC(C)(C)n1nc(-c2ccc(Cl)cc2)c2c(N)ncnc21 [PP2]
IC50 (ARPE-19 cells [1]): 2500 nM | IC50 (ARPE-19/EMP2 siRNA cells): < 1000 nM | IC50 (ARPE-19/EMP2 cells): 5000 nM

PDGF
wound closure (ARPE-19 cells [2]): stimulated wound closure

TGF-β
collagen production [3]: increased collagen production
